Results reported in patent US20250313528A1, “NOVEL COMPOUND AND PHARMACEUTICAL COMPOSITION FOR PREVENTING OR TREATING PULMONARY FIBROSIS COMPRISING SAME AS ACTIVE INGREDIENT” (GIL MEDICAL CENTER, priority 2022, published 2025).

How the values were obtained:
Format in all cases: cell-based, human
DHLF-IPF cells [1] = assay: Microscopic examination of cell morphology and proliferation, TGF-β1-induced DHLF-IPF; conditions: microscope, FIG. 4a
Protocol: (§1) The effects of the two candidate compounds of sulforaphane prodrugs on cytotoxicity and morphological changes in normal lung fibroblast MRC-5 cells and diseased lung fibroblast DHLF-IPF cells were examined. The diseased lung fibroblast DHLF-IPF cell line was purchased from Lonza and cultured in FGM™-2 Fibroblast Growth Medium-2 BulletKit™ at 37° C. in a 5% CO2 incubator.
(§2) Additionally, the changes in cell morphology of two lung fibroblasts induced by TGF-β1 according to the treatments with Compound 1 and Compound 2 were examined with the naked eye through a microscope.

fibronectin and α-SMA [2] = assay: Western blotting of fibrosis-related proteins in TGF-β1-induced MRC-5 cells; conditions: for expression of fibronectin and α-SMA by concentration: MRC-5 + TGF-β1, Compound 1 at 5, 10, 20 μM, Compound 2 at 2.5, 5, 10 μM, FIG. 3; for expression levels of fibronectin and α-SMA protein: MRC-5, TGF-β1 1 ng/ml, 10 μM, FIG. 4b; for expression levels of fibronectin and α-SMA: MRC-5 induced by TGF-β1, screen of sulforaphane compounds, FIG. 2
Protocol: Since the overexpression of extracellular matrix components such as fibronectin and α-SMA serves as an indicator of fibrotic changes in tissues, MRC-5 cells induced to undergo fibrosis by TGF-β1 were treated with each compound at different concentrations to compare the expression levels of fibronectin and α-SMA.
(§3) Specifically, to extract fibronectin and α-SMA proteins, the cells were washed once with cold PBS and then RIPA buffer (150 mM NaCl, 0.5% Triton X-100, 50 mM Tris-HCl, pH 7.4, 25 mM NaF, 20 mM EGTA), which was added with a protease inhibitor cocktail, was added thereto to lyse the cells. Then, the proteins were quantified using a BCA protein assay kit. All protein samples were subjected to electrophoresis at 10 μg on 8% to 10% PAGE gels and then transferred to 0.2 μm PVDF membranes (EMD Millipore, MA, USA). The membranes to which the protein was transferred were blocked with 5% BSA or 5% skim milk for 1 hour, and then primary antibodies were added thereto and incubated overnight at 4° C. The following day, the membranes were washed three times with PBST, and then HRP-conjugated secondary antibodies were added and reacted at room temperature for 1 hour. The PVDF membranes prepared through such procedures were smeared with ECL (Luminata™ Crescendo, EMD Millipore) and exposed to a fluorescence reader to confirm the level of protein expression.
The specific experimental methods are the same as in Example 2, and sulforaphane was treated at a concentration of 20 μM, Compound 1 at 5 μM, 10 μM, and 20 μM, and Compound 2 at 2.5 μM, 5 μM, and 10 μM, respectively.
(§4) To compare the changes in fibrosis-related protein expression by treating normal MRC-5 and diseased DHLF-IPF cell lines induced with pulmonary fibrosis by TGF-β1 with SFN and the two candidate compounds, Western blotting was performed.
(§5) The specific experimental methods are the same as in Example 2. TGF-β1 was treated at 1 ng/ml to induce fibrosis, and sulforaphane and the two compounds each were treated at a concentration of 10 μM.

fibronectin and α-SMA [3] = assay: Western blotting of fibrosis-related proteins in TGF-β1-induced DHLF-IPF cells; conditions: TGF-β1 1 ng/ml, 10 μM, FIG. 4b
Protocol: as §3, §4, §5

DHLF-IPF cells [4] = assay: Transwell migration assay, DHLF-IPF; conditions: inherent high migration, 24 hours, FIG. 5
Protocol: (§6) In accordance with the characteristics of myofibroblasts, in which the increased expression of proteins related to fibrogenesis leads to an increase of cell migration and invasion, migration and wound healing assays were conducted to examine the effects of the final selected Compound 1 and Compound 2 on cell migration using normal and diseased fibroblasts.
(§7) A 24-well culture plate was prepared with 500 μL of medium including FBS, and an 8 μm pore size insert was placed on top. Inside the insert, 300 μL of medium without FBS was added, and MRC-5 and DHLF-IPF cells were seeded at a density of 1×10^5 cells. […] After incubation, the medium inside the 8 μm pore polycarbonate membrane insert was carefully removed, washed with DPBS, and fixed in methanol for 5 minutes. The cells were then stained with Mayer's Haematoxylin for 8 minutes after washing twice with triple-distilled water. The stained cells were washed with DPBS, gently wiped with a cotton swab inside the insert, and the membrane was cut out and mounted on a slide. The migrated cells were counted under a microscope at 200× magnification.

MRC-5 cells [5] = assay: Transwell migration assay, MRC-5; conditions: MRC-5, TGF-β1 treatment, 24 hours, FIG. 5
Protocol: as §6, §7

TGF-β1 signaling pathway = assay: Western blotting of proteins related to TGF-β1 signaling pathway in DHLF-IPF; conditions: for expression level of Rock protein / expression levels of MRT/SRF in the cytoplasm and nucleus: increased by TGF-β1 treatment
Protocol: as §3
The TGF-β1 signaling pathway can be activated through both Smad-dependent and Smad-independent pathways. The TGF-β/Smad signaling, which is a Smad-dependent pathway, is a crucial pathway that regulates the synthesis of extracellular matrix components. The Smad-independent (TGF-β/non-Smad) pathway is influenced by PI3K/AKT/mTOR and MAPK (JNK, ERK, p38), which are known to be involved in cell proliferation and growth. Based on this mechanism, the protein expression related to the TGF-β1 signaling pathway was comparatively analyzed using the same Western blotting method conducted in Example 2.

DHLF-IPF cells [6] = assay: Wound healing assay, DHLF-IPF; conditions: TGF-β1 treatment, 24 hours, FIG. 6
Protocol: The effects of Compound 1 and Compound 2, selected in Example 3, on cell migration (wound healing) in MRC-5 and DHLF-IPF cells were examined.
Specifically, cells (1×10^5 cells/well) were seeded in a 60 mm dish to achieve approximately 90% confluency and cultured for 24 hours. Subsequently, a straight line was scratched on the bottom with a 200 μL pipette tip, and the detached cells were removed by washing once with Dulbecco's Phosphate-Buffered Saline (DPBS). The wound was photographed under a microscope, and treatments with TGF-β1 alone, TGF-β1+SFN, TGF-β1+GSF-016, and TGF-1+GSF-018 were applied and cultured for approximately 24 hours, after which the wound was re-photographed. The images taken at 24 hours of culture were analyzed using the Image J (Fiji package) software to measure the distance between cells, and the relative migration was expressed as a percentage (%) compared to the control group.

MRC-5 cells [7] = assay: Microscopic examination of cell morphology and proliferation, TGF-β1-induced MRC-5; conditions: MRC-5, TGF-β1-induced, microscope, FIG. 4a
Protocol: as §1, §2

Row | Structure (SMILES) | cell morphology (DHLF-IPF cells [1]) | inhibition of cell proliferation compared to sulforaphane-treated group (DHLF-IPF cells [1]) | expression of fibronectin and α-SMA by concentration (fibronectin and α-SMA [2]) | expression levels of fibronectin and α-SMA protein (fibronectin and α-SMA [2]) | expression levels of fibronectin and α-SMA (fibronectin and α-SMA [2]) | expression levels of fibronectin and α-SMA protein (fibronectin and α-SMA [3]) | cell migration (transwell) (DHLF-IPF cells [4]) | cell migration (transwell) (MRC-5 cells [5]) | activity of p-AKT (TGF-β1 signaling pathway; TGF-β1) | activity of p-p38 (TGF-β1 signaling pathway; TGF-β1) | phosphorylation of Smad-2 (TGF-β1 signaling pathway; TGF-β1) | phosphorylation of Smad-7 (TGF-β1 signaling pathway; TGF-β1) | expression level of Rock protein (TGF-β1 signaling pathway) | expression levels of MRT/SRF in the cytoplasm and nucleus (TGF-β1 signaling pathway) | cell migration (wound healing) (DHLF-IPF cells [6]) | cell morphology (MRC-5 cells [7]) | inhibition of cell proliferation compared to sulforaphane-treated group (MRC-5 cells [7]) | activity of p-ERK (TGF-β1 signaling pathway; TGF-β1) | activity of p-JNK (TGF-β1 signaling pathway; TGF-β1) | phosphorylation of Smad-3 (TGF-β1 signaling pathway; TGF-β1)
1 | CCOC(=O)C(CSC(=S)NCCCC[S+](C)[O-])NC(C)=O (stereo not shown) [Compound 1] | thin and elongated shape, which is similar to that of the control group | inhibition of cell proliferation was more significant | decreased in a concentration-dependent manner | significantly reducing the expression levels compared to sulforaphane | significantly decreased | significantly reducing the expression levels compared to sulforaphane | significantly inhibited in a dose-dependent manner | significantly inhibited in a dose-dependent manner | significantly reducing the activity | significantly reducing the activity | inhibited | increased | significantly reduced | significantly reduced | significantly inhibited in a dose-dependent manner | thin and elongated shape, which is similar to that of the control group | inhibition of cell proliferation was more significant | – | – | –
2 | C=CCOC(=O)C(CSC(=S)NCCCC[S+](C)[O-])NC(C)=O (stereo not shown) [Compound 2] | thin and elongated shape, which is similar to that of the control group | inhibition of cell proliferation was more significant | decreased in a concentration-dependent manner | significantly reducing the expression levels compared to sulforaphane | significantly decreased | significantly reducing the expression levels compared to sulforaphane | significantly inhibited in a dose-dependent manner | significantly inhibited in a dose-dependent manner | significantly reduced the activity | reducing the activity | inhibited | increased | significantly reduced | significantly reduced | significantly inhibited in a dose-dependent manner | thin and elongated shape, which is similar to that of the control group | inhibition of cell proliferation was more significant | reducing the activity | reducing the activity | inhibited
